In US20250197372A1 (priority 2020, published 2025):

Target: T1, recombinant alpha-glucosidase I (human full-length glucosidase I, Glu 1) (Homo sapiens, UniProt Q13724)
T1 construct: 6-His (C); made in house; host or cells: HEK-293T cells transduced with BacMam virus (virus raised in Sf9)
T1 sequence (Q13724 1-837): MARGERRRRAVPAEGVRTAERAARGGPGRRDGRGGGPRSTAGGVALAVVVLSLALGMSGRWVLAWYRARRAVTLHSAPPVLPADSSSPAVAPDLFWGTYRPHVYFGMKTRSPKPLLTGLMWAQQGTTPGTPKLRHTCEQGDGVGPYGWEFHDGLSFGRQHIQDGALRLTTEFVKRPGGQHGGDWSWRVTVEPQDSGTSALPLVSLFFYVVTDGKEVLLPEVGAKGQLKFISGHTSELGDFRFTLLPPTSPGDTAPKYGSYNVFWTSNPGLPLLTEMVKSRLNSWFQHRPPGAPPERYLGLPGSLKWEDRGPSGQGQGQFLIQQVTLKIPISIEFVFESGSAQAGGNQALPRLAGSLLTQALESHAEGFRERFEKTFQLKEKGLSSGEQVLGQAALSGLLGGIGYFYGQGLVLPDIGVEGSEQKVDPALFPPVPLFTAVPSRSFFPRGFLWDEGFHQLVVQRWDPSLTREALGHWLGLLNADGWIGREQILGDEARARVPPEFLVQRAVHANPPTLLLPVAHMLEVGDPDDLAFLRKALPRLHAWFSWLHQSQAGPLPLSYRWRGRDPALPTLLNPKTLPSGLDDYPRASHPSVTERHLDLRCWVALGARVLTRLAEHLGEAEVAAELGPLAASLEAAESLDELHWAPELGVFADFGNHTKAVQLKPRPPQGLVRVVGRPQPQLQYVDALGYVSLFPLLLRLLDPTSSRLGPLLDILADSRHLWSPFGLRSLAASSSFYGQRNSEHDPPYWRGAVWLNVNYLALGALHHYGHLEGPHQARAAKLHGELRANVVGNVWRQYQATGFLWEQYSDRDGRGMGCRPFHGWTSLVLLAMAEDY
Experiment: Alpha-glucosidase I assay (Amplex Red glucose detection, synthetic trisaccharide substrate)
Type: biochemical
Conditions: not given
Source text: Preparation of Human Full-length Glucosidase I: The amino acid sequence for human full-length glucosidase I was obtained from UniProt (Q13724). […] The entry vector was cloned into Kemp Proteins' BacMam Destination vector and transformed into chemically competent DH10Bac E. coli cells to produce recombinant glucosidase I bacmids. Bacmid isolates were obtained following two rounds of blue-white screening and they were transfected into Sf9 cells cultivated in serum-free medium (Thermo Fisher Scientific). Four days post-transfection the culture supernatants containing virus were harvested and filter sterilized. […] A multiplicity of infection (MOI, ratio of virus to cells) of 4 was selected. Soluble glucosidase I was detected by anti-His western blots in the soluble cell extract following extraction with 1% V/V NP40 for 30 minutes at 0° C. Productions and purifications of glucosidase I were carried out at scales ranging from 1-liter to 10-liters. […] In another example production at the 10-liter scale was performed in stirred-tank bioreactors at 27° C. and 80 rpm with dissolved oxygen level at 50% of oxygen in air and pH between 7.0 and 7.2. Cells were transduced at MOI of 4 and the cell pellet was harvested at 48 hours post-transduction using centrifugation.
The pellet from a 10-liter culture was lysed by resuspending the pellet into 1-liter of 50 mM NaH2PO4—H2O+300 mM NaCl+10 mM Imidazole+1 mM PMSF+1% V/V NP40 pH 8. The suspension was incubated on ice for 30 minutes and clarified at 500×g and 4° C. The supernatant was collected and clarified at 20,000×g for 30 minutes at 4° C. and the supernatant was collected and filtered through a 0.2 micron filter. […] The column was washed with 20 column volumes (CV) of 50 mM NaH2PO4-H2O+300 mM NaCl+10 mM Imidazole pH 8 and eluted using a linear gradient of 0-60% 50 mM NaH2PO4-H2O+300 mM NaCl+500 mM Imidazole pH 8 over 90 minutes. at 5 mL per minute. Fractions (25 mL) were collected and analyzed by SDS PAGE and Western Blot (reducing anti-His). Fractions containing purified glucosidase I were pooled and dialyzed into storage buffer (20 mM Tris+300 mM NaCl+50 mM L-arginine+10 mM EDTA+0.01% V/V Tween 80 pH 7.5). The final material was filter sterilized and stored at 4° C. and the working dilution confirmed by a use-test in the indicated assay conditions prior to use.
Alpha-glucosidase I Assay: The assay was performed by incubating recombinant alpha-glucosidase I enzyme with multiple dilutions of test compounds for 60 minutes at 37° C. A synthetic trisaccharide substrate analog was then introduced to the mixture for 90 minutes at 37° C. The reaction was then stopped with 1.5M Tris (pH 8). In the absence of inhibition, the terminal glucose of the substrate was hydrolyzed by the enzyme. The D-glucose product was detected using Amplex Red Glucose/Glucose Oxidase Assay Kit (Invitrogen) following the manufacturer's directions where glucose oxidase reacts with D-glucose to form D-gluconolactone and H2O2 which then reacts with the Amplex Red reagent to generate a red-fluorescent oxidation product (560 nm, excitation; 590 nm, emission). […] Percent inhibition is plotted as a function of concentration for each compound, compared to control reactions. The IC50 was determined using a 4-PL curve fit and serves as a measure of relative inhibitory activity of each test compound (see Table 3).

SMILES	IC50
O=[N+]([O-])c1cc(-c2ccccc2)ccc1NCCCCCCN1C[C@H](O)[C@@H](O)[C@H](O)[C@H]1CO [Compound 1138, (2R,3R,4R,5S)-2-(hydroxymethyl)-1-[6-({3-nitro-[1,1′-biphenyl]-4-yl}amino)hexyl]piperidine-3,4,5-triol]	115 nM

Same assay, conditions: Glucosidase 1; read-out: Glu 1 IC50

SMILES	IC50
COC(OC)c1cc(NCCCCCCN2C[C@H](O)[C@@H](O)[C@H](O)[C@H]2CO)cc(-c2ncccn2)c1 [Compound 1124, (2R,3R,4R,5S)-1-(6-{[3-(dimethoxymethyl)-5-(pyrimidin-2-yl)phenyl]amino}hexyl)-2-(hydroxymethyl)piperidine-3,4,5-triol]	513 nM
CC(=O)Nc1cc(NCCCCCCN2C[C@H](O)[C@@H](O)[C@H](O)[C@H]2CO)cc(-c2ncccn2)c1 [Compound 1125, N-[3-(pyrimidin-2-yl)-5-({6-[(2R,3R,4R,5S)-3,4,5-trihydroxy-2-(hydroxymethyl)piperidin-1-yl]hexyl}amino)phenyl]acetamide]	337 nM
CN(C)C(=O)c1cc(NCCCCCCN2C[C@H](O)[C@@H](O)[C@H](O)[C@H]2CO)cc(-c2ncccn2)c1 [Compound 1126, N,N-dimethyl-3-(pyrimidin-2-yl)-5-({6-[(2R,3R,4R,5S)-3,4,5-trihydroxy-2-(hydroxymethyl)piperidin-1-yl]hexyl}amino)benzamide]	550 nM
CS(=O)(=O)c1cc(NCCCCCCN2C[C@H](O)[C@@H](O)[C@H](O)[C@H]2CO)cc(-c2ncccn2)c1 [Compound 1128, (2R,3R,4R,5S)-2-(hydroxymethyl)-1-(6-{[3-methanesulfonyl-5-(pyrimidin-2-yl)phenyl]amino}hexyl)piperidine-3,4,5-triol]	116 nM
O=Cc1cc(NCCCCCCN2C[C@H](O)[C@@H](O)[C@H](O)[C@H]2CO)cc(-c2ncccn2)c1 [Compound 1129, 3-(pyrimidin-2-yl)-5-({6-[(2R,3R,4R,5S)-3,4,5-trihydroxy-2-(hydroxymethyl)piperidin-1-yl]hexyl}amino)benzaldehyde]	148 nM
N#Cc1cc(NCCCCCCN2C[C@H](O)[C@@H](O)[C@H](O)[C@H]2CO)cc(-c2ncccn2)c1 [Compound 1130, 3-(pyrimidin-2-yl)-5-({6-[(2R,3R,4R,5S)-3,4,5-trihydroxy-2-(hydroxymethyl)piperidin-1-yl]hexyl}amino)benzonitrile]	244 nM
OC[C@@H]1[C@@H](O)[C@H](O)[C@@H](O)CN1CCCCCCNc1cc(-c2ncccn2)cc(C(F)(F)F)c1 [Compound 1131, (2R,3R,4R,5S)-2-(hydroxymethyl)-1-(6-{[3-(pyrimidin-2-yl)-5-(trifluoromethyl)phenyl]amino}hexyl)piperidine-3,4,5-triol]	232 nM
COc1cc(C#N)cc(NCCc2ccc(CCN3C[C@H](O)[C@@H](O)[C@H](O)[C@H]3CO)cc2)c1 [Compound 1133, 3-methoxy-5-{[2-(4-{2-[(2R,3R,4R,5S)-3,4,5-trihydroxy-2-(hydroxymethyl)piperidin-1-yl]ethyl}phenyl)ethyl]amino}benzonitrile]	1280 nM
N#Cc1cc(Cl)cc(NCCc2ccc(CCN3C[C@H](O)[C@@H](O)[C@H](O)[C@H]3CO)cc2)c1 [Compound 1134, 3-chloro-5-{[2-(4-{2-[(2R,3R,4R,5S)-3,4,5-trihydroxy-2-(hydroxymethyl)piperidin-1-yl]ethyl}phenyl)ethyl]amino}benzonitrile]	640 nM
O=[N+]([O-])c1cc(C2CC2)ccc1NCCCCCCN1C[C@H](O)[C@@H](O)[C@H](O)[C@H]1CO [Compound 1136, (2R,3R,4R,5S)-1-{6-[(4-cyclopropyl-2-nitrophenyl)amino]hexyl}-2-(hydroxymethyl)piperidine-3,4,5-triol]	25 nM
[N-]=[N+]=Nc1ccc(NCCc2cc(Br)cc(CCN3C[C@H](O)[C@@H](O)[C@H](O)[C@H]3CO)c2)c([N+](=O)[O-])c1 [Compound 1140, (2R,3R,4R,5S)-1-[2-(3-{2-[(4-azido-2-nitrophenyl)amino]ethyl}-5-bromophenyl)ethyl]-2-(hydroxymethyl)piperidine-3,4,5-triol]	153 nM
COc1cc(CC2CCOC2)cc(NCCCCCCN2C[C@H](O)[C@@H](O)[C@H](O)[C@H]2CO)c1 (stereo partly drawn) [Compound 1141, (2R,3R,4R,5S)-2-(hydroxymethyl)-1-[6-({3-methoxy-5-[(oxolan-3-yl)methyl]phenyl}amino)hexyl]piperidine-3,4,5-triol]	1160 nM
[N-]=[N+]=Nc1ccc(NCCNc2cc(Cl)cc(CCN3C[C@H](O)[C@@H](O)[C@H](O)[C@H]3CO)c2)c([N+](=O)[O-])c1 [Compound 1143, (2R,3R,4R,5S)-1-{2-[3-({2-[(4-azido-2-nitrophenyl)amino]ethyl}amino)-5-chlorophenyl]ethyl}-2-(hydroxymethyl)piperidine-3,4,5-triol]	334 nM
COc1cc(Cc2ccccc2)cc(NCCCCCCN2C[C@H](O)[C@@H](O)[C@H](O)[C@H]2CO)c1 [Compound 1145, (2R,3R,4R,5S)-1-{6-[(3-benzyl-5-methoxyphenyl)amino]hexyl}-2-(hydroxymethyl)piperidine-3,4,5-triol]	283 nM
COc1cc(NCCCCCCN2C[C@H](O)[C@@H](O)[C@H](O)[C@H]2CO)cc(C2CCCO2)c1 (stereo partly drawn) [Compound 1146, (2R,3R,4R,5S)-2-(hydroxymethyl)-1-(6-{[3-methoxy-5-(oxolan-2-yl)phenyl]amino}hexyl)piperidine-3,4,5-triol]	511 nM
COc1cc(NCCCCCCN2C[C@H](O)[C@@H](O)[C@H](O)[C@H]2CO)cc(C2=CCCO2)c1 [Compound 1147, (2R,3R,4R,5S)-1-(6-{[3-(4,5-dihydrofuran-2-yl)-5-methoxyphenyl]amino}hexyl)-2-(hydroxymethyl)piperidine-3,4,5-triol]	263 nM
COc1cc(NCCCCCCN2C[C@H](O)[C@@H](O)[C@H](O)[C@H]2CO)cc(C2CCCCC2)c1 [Compound 1148, (2R,3R,4R,5S)-1-{6-[(3-cyclohexyl-5-methoxyphenyl)amino]hexyl}-2-(hydroxymethyl)piperidine-3,4,5-triol]	372 nM
COc1cc(NCCCCCCN2C[C@H](O)[C@@H](O)[C@H](O)[C@H]2CO)cc(C2=CCCCC2)c1 [Compound 1149, (2R,3R,4R,5S)-1-(6-{[3-(cyclohex-1-en-1-yl)-5-methoxy-phenyl]amino}hexyl)-2-(hydroxymethyl)piperidine-3,4,5-triol]	264 nM
COc1cc(NCCCCCCN2C[C@H](O)[C@@H](O)[C@H](O)[C@H]2CO)cc(-c2ccccc2)c1 [Compound 1150, (2R,3R,4R,5S)-2-(hydroxymethyl)-1-[6-({5-methoxy-[1,1′-biphenyl]-3-yl}amino)hexyl]piperidine-3,4,5-triol]	80 nM
